Laboratory results published in ChEMBL document CHEMBL5532665 (J Med Chem, 2024).
The source made the active and inactive calls. No cut-off for these calls is given here.

What was measured:
Mus musculus [1] = test: Antinociceptive activity in Kunming mouse model assessed as latency of tail withdrawal at 13882 nmol/kg, sc measured for 10 mins by tail-flick test relative to control; type: functional
Mus musculus [2] = test: Antinociceptive activity in Kunming mouse model assessed as latency of tail withdrawal at 13882 nmol/kg, sc measured for 30 mins by tail-flick test relative to control; type: functional; settings: 0.5 h
Mus musculus [3] = test: Antinociceptive activity in Kunming mouse model assessed as latency of tail withdrawal at 13882 nmol/kg, sc measured for 60 mins by tail-flick test relative to control; type: functional; settings: 1 h
Mus musculus [4] = test: Antinociceptive activity in Kunming mouse model assessed as latency of tail withdrawal at 13882 nmol/kg, sc measured for 120 mins by tail-flick test relative to control; type: functional; settings: 2 h
Mu-type opioid receptor [5] = biological target: T1, Mu-type opioid receptor (Homo sapiens, UniProt P35372); test: Agonist activity at human MOR expressed in CHO-K1 cells co-expressing G-alpha15 by calcium mobilization assay; type: functional, cell-based
T1 sequence (P35372 whole entry): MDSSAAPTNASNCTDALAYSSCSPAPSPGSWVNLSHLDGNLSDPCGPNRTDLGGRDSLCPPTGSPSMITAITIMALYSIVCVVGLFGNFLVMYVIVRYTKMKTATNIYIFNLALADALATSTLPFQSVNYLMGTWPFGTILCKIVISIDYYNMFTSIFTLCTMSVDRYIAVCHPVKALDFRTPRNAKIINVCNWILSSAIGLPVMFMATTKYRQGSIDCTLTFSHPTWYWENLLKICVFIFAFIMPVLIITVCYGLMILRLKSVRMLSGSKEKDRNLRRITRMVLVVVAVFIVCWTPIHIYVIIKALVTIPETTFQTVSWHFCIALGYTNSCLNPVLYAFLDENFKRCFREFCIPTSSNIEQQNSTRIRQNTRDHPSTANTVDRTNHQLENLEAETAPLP

Mu-type opioid receptor [6] = biological target: T1, Mu-type opioid receptor; test: Agonist activity at human MOR expressed in CHO-K1 cells co-expressing G-alpha15 by calcium mobilization assay relative to control; type: functional, cell-based; settings: filed as agonist
[7] = biological target: T2, Delta-type opioid receptor (Homo sapiens, UniProt P41143); test: Agonist activity at human DOR expressed in CHO-K1 cells co-expressing G-alpha15 by calcium mobilization assay; type: functional, cell-based
T2 sequence (P41143 whole entry): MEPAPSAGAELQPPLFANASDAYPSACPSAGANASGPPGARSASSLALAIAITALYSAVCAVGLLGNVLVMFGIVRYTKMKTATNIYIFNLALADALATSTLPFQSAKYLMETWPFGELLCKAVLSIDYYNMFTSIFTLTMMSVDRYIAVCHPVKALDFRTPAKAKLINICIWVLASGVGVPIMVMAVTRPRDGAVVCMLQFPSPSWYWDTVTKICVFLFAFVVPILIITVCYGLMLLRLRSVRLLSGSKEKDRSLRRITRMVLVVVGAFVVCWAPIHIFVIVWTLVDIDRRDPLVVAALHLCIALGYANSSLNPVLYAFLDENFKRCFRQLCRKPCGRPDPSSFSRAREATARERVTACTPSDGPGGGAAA

[8] = biological target: T2, Delta-type opioid receptor; test: Agonist activity at human DOR expressed in CHO-K1 cells co-expressing G-alpha15 by calcium mobilization assay relative to control; type: functional, cell-based; settings: filed as agonist
Mus musculus [9] = test: Antinociceptive activity in Kunming mouse model assessed as latency of tail withdrawal at 14157 nmol/kg, sc measured for 10 mins by tail-flick test relative to control; type: functional
Mus musculus [10] = test: Antinociceptive activity in Kunming mouse model assessed as latency of tail withdrawal at 14157 nmol/kg, sc measured for 30 mins by tail-flick test relative to control; type: functional; settings: 0.5 h
Mus musculus [11] = test: Antinociceptive activity in Kunming mouse model assessed as latency of tail withdrawal at 14157 nmol/kg, sc measured for 60 mins by tail-flick test relative to control; type: functional; settings: 1 h
Mus musculus [12] = test: Antinociceptive activity in Kunming mouse model assessed as latency of tail withdrawal at 14157 nmol/kg, sc measured for 120 mins by tail-flick test relative to control; type: functional; settings: 2 h
[13] = Stability in mouse plasma assessed as half life at 0.01 mol/L measured for 72 hrs by RP-HPLC analysis; type: ADME, cell-free
[14] = biological target: T3, Kappa-type opioid receptor (Homo sapiens, UniProt P41145); test: Agonist activity at human KOR expressed in CHO-K1 cells co-expressing G-alpha15 upto 100 uM by calcium mobilization assay; type: functional, cell-based
T3 sequence (P41145 whole entry): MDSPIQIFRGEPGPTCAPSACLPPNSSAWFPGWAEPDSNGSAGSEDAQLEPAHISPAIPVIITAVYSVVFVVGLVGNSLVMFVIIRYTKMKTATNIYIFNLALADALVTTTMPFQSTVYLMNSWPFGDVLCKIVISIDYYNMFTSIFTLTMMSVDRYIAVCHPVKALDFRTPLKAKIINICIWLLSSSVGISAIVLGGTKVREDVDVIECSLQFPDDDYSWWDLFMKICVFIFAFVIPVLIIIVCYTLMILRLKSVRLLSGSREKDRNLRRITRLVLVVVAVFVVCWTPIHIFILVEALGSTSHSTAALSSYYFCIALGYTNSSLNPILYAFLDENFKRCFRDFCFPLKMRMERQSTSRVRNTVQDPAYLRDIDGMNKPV

Mus musculus [15] = test: Antinociceptive activity in Kunming mouse model assessed as latency of tail withdrawal at 134 nmol/kg, sc measured for 10 mins by tail-flick test relative to control; type: functional
Mus musculus [16] = test: Antinociceptive activity in Kunming mouse model assessed as latency of tail withdrawal at 134 nmol/kg, sc measured for 30 mins by tail-flick test relative to control; type: functional; settings: 0.5 h
Mus musculus [17] = test: Antinociceptive activity in Kunming mouse model assessed as latency of tail withdrawal at 134 nmol/kg, sc measured for 60 mins by tail-flick test relative to control; type: functional; settings: 1 h
Mus musculus [18] = test: Antinociceptive activity in Kunming mouse model assessed as latency of tail withdrawal at 134 nmol/kg, sc measured for 120 mins by tail-flick test relative to control; type: functional; settings: 2 h
Mus musculus [19] = test: Antinociceptive activity in Kunming mouse model assessed as latency of tail withdrawal at 15007 nmol/kg, sc measured for 10 mins by tail-flick test relative to control; type: functional
Mus musculus [20] = test: Antinociceptive activity in Kunming mouse model assessed as latency of tail withdrawal at 15007 nmol/kg, sc measured for 30 mins by tail-flick test relative to control; type: functional; settings: 0.5 h
Mus musculus [21] = test: Antinociceptive activity in Kunming mouse model assessed as latency of tail withdrawal at 15007 nmol/kg, sc measured for 60 mins by tail-flick test relative to control; type: functional; settings: 1 h
Mus musculus [22] = test: Antinociceptive activity in Kunming mouse model assessed as latency of tail withdrawal at 15007 nmol/kg, sc measured for 120 mins by tail-flick test relative to control; type: functional; settings: 2 h
[23] = biological target: T3, Kappa-type opioid receptor; test: Agonist activity at human KOR expressed in CHO-K1 cells co-expressing G-alpha15 by calcium mobilization assay; type: functional, cell-based; settings: cho-k1
[24] = biological target: T3, Kappa-type opioid receptor; test: Agonist activity at human KOR expressed in CHO-K1 cells co-expressing G-alpha15 by calcium mobilization assay relative to control; type: functional, cell-based; settings: filed as agonist
Mus musculus [25] = test: Antinociceptive activity in Kunming mouse model assessed as latency of tail withdrawal at 138.9 nmol/kg, sc measured for 10 mins by tail-flick test relative to control; type: functional
Mus musculus [26] = test: Antinociceptive activity in Kunming mouse model assessed as latency of tail withdrawal at 138.9 nmol/kg, sc measured for 30 mins by tail-flick test relative to control; type: functional; settings: 0.5 h
Mus musculus [27] = test: Antinociceptive activity in Kunming mouse model assessed as latency of tail withdrawal at 138.9 nmol/kg, sc measured for 60 mins by tail-flick test relative to control; type: functional; settings: 1 h
Mus musculus [28] = test: Antinociceptive activity in Kunming mouse model assessed as latency of tail withdrawal at 138.9 nmol/kg, sc measured for 120 mins by tail-flick test relative to control; type: functional; settings: 2 h
Mus musculus [29] = test: Antinociceptive activity in Kunming mouse model assessed as latency of tail withdrawal at 164.1 nmol/kg, sc measured for 10 mins by tail-flick test relative to control; type: functional
Mus musculus [30] = test: Antinociceptive activity in Kunming mouse model assessed as latency of tail withdrawal at 164.1 nmol/kg, sc measured for 30 mins by tail-flick test relative to control; type: functional; settings: 0.5 h
Mus musculus [31] = test: Antinociceptive activity in Kunming mouse model assessed as latency of tail withdrawal at 164.1 nmol/kg, sc measured for 60 mins by tail-flick test relative to control; type: functional; settings: 1 h
Mus musculus [32] = test: Antinociceptive activity in Kunming mouse model assessed as latency of tail withdrawal at 164.1 nmol/kg, sc measured for 120 mins by tail-flick test relative to control; type: functional; settings: 2 h

NC(=O)[C@H]1CCCN1C(=O)[C@@H]1CC(=O)NCCCC[C@@H](NC(=O)[C@@H](N)Cc2ccc(O)cc2)C(=O)NCC(=O)N[C@@H](CCc2ccccc2)C(=O)N1
MPE (Mus musculus [1]): 55% | MPE (Mus musculus [2]): 96% | MPE (Mus musculus [3]): 73.7% | MPE (Mus musculus [4]): 25.6%

N[C@@H](Cc1ccc(O)cc1)C(=O)N[C@@H]1CCCCNC(=O)C[C@H](C(=O)N2CCC[C@H]2C(=O)O)NC(=O)[C@H](Cc2ccccc2)NC(=O)CNC1=O
EC50 (Mu-type opioid receptor [5]): 3.8 nM | Emax (Mu-type opioid receptor [6]): 94.8% | EC50 [7]: 3.3 nM | Emax [8]: 109% | MPE (Mus musculus [9]): 65% | MPE (Mus musculus [10]): 97.4% | MPE (Mus musculus [11]): 77% | MPE (Mus musculus [12]): 37.3% | half-life at 0.01 mol/L [13]: 23 h

NC(=O)[C@@H]1CCCN1C(=O)[C@H]1CC(=O)NCCCC[C@@H](NC(=O)[C@@H](N)Cc2ccc(O)cc2)C(=O)N2CCC[C@H]2C(=O)N[C@@H](Cc2ccccc2)C(=O)N1
EC50 (Mu-type opioid receptor [5]): 2090 nM | Activity [14]: inactive | Emax (Mu-type opioid receptor [6]): 83.6% | MPE (Mus musculus [15]): 57.9% | MPE (Mus musculus [16]): 88% | MPE (Mus musculus [17]): 84.5% | MPE (Mus musculus [18]): 46.1%

NC(=O)CNC(=O)[C@@H]1CC(=O)NCCCC[C@@H](NC(=O)[C@@H](N)Cc2ccc(O)cc2)C(=O)NCC(=O)N[C@@H](Cc2ccccc2)C(=O)N1
MPE (Mus musculus [19]): 73.4% | MPE (Mus musculus [20]): 92.5% | MPE (Mus musculus [21]): 74.1% | MPE (Mus musculus [22]): 43.1%

NC(=O)[C@H]1CCCCN1C(=O)[C@H]1CC(=O)NCCCC[C@@H](NC(=O)[C@@H](N)Cc2ccc(O)cc2)C(=O)NCC(=O)N[C@@H](Cc2ccccc2)C(=O)N1
EC50 (Mu-type opioid receptor [5]; cho-k1): 4.9 nM | Emax (Mu-type opioid receptor [6]): 99.6% | EC50 [23]: 2280 nM | Emax [24]: 68.7% | EC50 ([7]; cho-k1): 0.2 nM | Emax [8]: 95.4% | MPE (Mus musculus [25]): 59.6% | MPE (Mus musculus [26]): 86.8% | MPE (Mus musculus [27]): 61.4% | MPE (Mus musculus [28]): 26.7%

NC(=O)[C@@H]1CC(=O)NCCCC[C@@H](NC(=O)[C@@H](N)Cc2ccc(O)cc2)C(=O)NCC(=O)N[C@@H](Cc2ccccc2)C(=O)N1
MPE (Mus musculus [29]): 70.7% | MPE (Mus musculus [30]): 95.4% | MPE (Mus musculus [31]): 71.9% | MPE (Mus musculus [32]): 43.8%
